# Earlier results in paper PMC12337022, “Randomized, Double-Blind, Crossover Study Comparing the Bioavailability of 4 Ashwagandha (Withania somnifera (L.) Dunal) Extracts in Healthy Adults Under Fasting Condition” (Current Therapeutic Research, Clinical and Experimental, 2025).
# Like-named read-outs stand apart in the source and are kept apart here.
# Tests used:
# [1] = system: Madin-Darby canine kidney cells
# [2] = set-up: method as in Pires et al 27; details: Phase I dose-escalation, 13 participants, highest dose level tested, HPLC sensitivity 50 ng/mL; ref Pires et al 27
# [3] = set-up: method as in Dai et al 20; details: rat and human liver microsomes; ref Dai et al 20
# [4] = set-up: method as in Singh et al 25; details: Sprague-Dawley rats, orally at 25 mg/kg and intravenously at 2 mg/kg; ref Singh et al 25
# [5] = Madin-Darby canine kidney cells, in vitro
"permeability [1, 5]",Molecule,permeability ([1]; MDCK),also measured
,CC1=C(C)C(=O)O[C@@H]([C@](C)(O)[C@H]2CC[C@H]3[C@@H]4[C@@H]5O[C@@H]5[C@@]5(O)CC=CC(=O)[C@]5(C)[C@H]4CC[C@]23C)C1 [withanolide A],highly permeable,
highly permeable,"1,2-deoxy-withastramonolide",,
,CC1=C(C)C(=O)O[C@@H]([C@@H](C)[C@H]2CC[C@H]3[C@@H]4[C@@H]5O[C@@H]5[C@@]5(O)CC=CC(=O)[C@]5(C)[C@H]4CC[C@]23C)C1 [withanolide B],highly permeable,
,CC1=C(C)C(=O)O[C@@H]([C@@H](C)[C@H]2CC[C@H]3[C@@H]4CC=C5C[C@@H](O[C@@H]6O[C@H](CO[C@@H]7O[C@H](CO)[C@@H](O)[C@H](O)[C@H]7O)[C@@H](O)[C@H](O)[C@H]6O)C[C@H](O)[C@]5(C)[C@H]4CC[C@]23C)C1 [withanoside V],low permeability,
low permeability,CC1=C(CO)C(=O)O[C@@H]([C@@H](C)[C@H]2CC[C@H]3[C@@H]4C[C@H]5O[C@]56[C@@H](O)C=CC(=O)[C@]6(C)[C@H]4CC[C@]23C)C1 [withaferin A],,detectability in plasma [2]: not detectable; half-life [3]: 5.6 min; oral bioavailability [4]: about 5%
,CC1=C(CO)C(=O)O[C@@H]([C@@H](C)[C@H]2CC[C@H]3[C@@H]4CC=C5C[C@@H](O[C@@H]6O[C@H](CO[C@@H]7O[C@H](CO)[C@@H](O)[C@H](O)[C@H]7O)[C@@H](O)[C@H](O)[C@H]6O)C[C@H](O)[C@]5(C)[C@H]4CC[C@]23C)C1 [withanoside IV],low permeability,

Molecule,"permeability [1, 5]",permeability ([1]; MDCK),also measured
CC1=C(C)C(=O)O[C@@H]([C@@H](C)[C@@]2(O)CC[C@H]3[C@@H]4[C@@H]5O[C@@H]5[C@@]5(O)CC=CC(=O)[C@]5(C)[C@H]4CC[C@@]32C)C1 [withanone],highly permeable,,
